Measured values taken from ChEMBL document CHEMBL1128904, “Synthesis and biological activity of 1-alkylcarbonylmethyl analogues of YM022” (Bioorg Med Chem Lett, 1996).
Calls of active or inactive are those of the source. No cut-off for these calls is given here.

Tests used:
[1] = molecular target: T1, Gastrin/cholecystokinin type B receptor (Rattus norvegicus, UniProt P30553); experiment: Ability to displace [125I]CCK-8 from gastrin/Cholecystokinin type B receptor from rat brain; format: tissue-based
T1 sequence (P30553 whole entry): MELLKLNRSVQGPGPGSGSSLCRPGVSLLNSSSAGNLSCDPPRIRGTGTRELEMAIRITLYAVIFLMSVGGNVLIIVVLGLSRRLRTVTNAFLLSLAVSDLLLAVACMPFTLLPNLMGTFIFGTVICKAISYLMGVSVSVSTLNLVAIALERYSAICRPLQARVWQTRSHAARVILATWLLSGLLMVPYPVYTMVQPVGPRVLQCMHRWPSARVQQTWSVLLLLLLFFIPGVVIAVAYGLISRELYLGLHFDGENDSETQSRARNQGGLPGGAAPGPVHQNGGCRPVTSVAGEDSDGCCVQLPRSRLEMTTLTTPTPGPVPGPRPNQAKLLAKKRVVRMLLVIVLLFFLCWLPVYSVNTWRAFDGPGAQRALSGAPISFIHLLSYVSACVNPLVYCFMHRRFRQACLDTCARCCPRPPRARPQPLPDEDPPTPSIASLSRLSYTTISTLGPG

[2] = system: Rattus norvegicus; experiment: Compound was evaluated for in vivo inhibition of pentagastrin induced gastric acid secretion in rats after iv administration at dose of 0.03 umol/kg; format: functional; conditions: Stomach
[3] = system: Rattus norvegicus; experiment: Compound was evaluated for in vivo inhibition of pentagastrin induced gastric acid secretion in rats by 50% after iv administration; format: functional; conditions: Stomach
[4] = system: Rattus norvegicus; experiment: Compound was evaluated for in vivo inhibition of pentagastrin induced gastric acid secretion in rats after id administration at dose of 0.3 umol/kg; format: functional; conditions: Stomach
[5] = system: Rattus norvegicus; experiment: Compound was evaluated for inhibition of pentagastrin induced gastric acid secretion in rats after id administration at dose of 0.3 umol/kg; format: functional; conditions: Stomach
[6] = system: Rattus norvegicus; experiment: Compound was evaluated for inhibition of pentagastrin induced gastric acid secretion in rats by 50% after iv administration; format: functional; conditions: Stomach
[7] = system: Rattus norvegicus; experiment: Compound was evaluated for in vivo inhibition of pentagastrin induced gastric acid secretion in rats after id administration at dose of 0.3 umol/kg; Not determined; format: functional, organism-based; conditions: Stomach
[8] = molecular target: T2, Cholecystokinin receptor type A (Rattus norvegicus, UniProt P30551); experiment: Compound was evaluated for its ability to displace [3H]L-364718 from Cholecystokinin type A receptor from rat pancreas
T2 sequence (P30551 whole entry): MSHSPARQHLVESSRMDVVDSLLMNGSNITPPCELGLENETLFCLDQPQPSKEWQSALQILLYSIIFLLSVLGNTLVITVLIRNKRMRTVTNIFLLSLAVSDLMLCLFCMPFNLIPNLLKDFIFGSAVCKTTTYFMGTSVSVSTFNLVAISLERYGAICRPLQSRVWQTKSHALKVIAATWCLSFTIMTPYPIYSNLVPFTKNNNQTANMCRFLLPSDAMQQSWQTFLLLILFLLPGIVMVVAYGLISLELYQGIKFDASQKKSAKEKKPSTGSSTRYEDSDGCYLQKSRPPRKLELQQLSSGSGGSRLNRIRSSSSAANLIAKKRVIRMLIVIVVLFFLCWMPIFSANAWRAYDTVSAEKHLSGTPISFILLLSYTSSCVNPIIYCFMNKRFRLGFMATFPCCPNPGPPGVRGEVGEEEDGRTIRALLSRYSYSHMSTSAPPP

[9] = system: Rattus norvegicus; experiment: Compound was evaluated for in vivo inhibition of pentagastrin induced gastric acid secretion in rats after iv administration at dose of 0.1 umol/kg; format: functional; conditions: Stomach

SMILES | IC50 [1] | inhibition in vivo at 0.03 µmol/kg [2] | other results
Cc1cccc(NC(=O)NC2N=C(c3ccccc3)c3ccccc3N(CC(=O)CC3CCCCC3)C2=O)c1 (configuration not stated) | 0.28 nM |  | 
Cc1cccc(NC(=O)NC2N=C(c3ccccc3)c3ccccc3N(CC(=O)C(C)(C)C)C2=O)c1 (configuration not stated) | 0.52 nM | 76.7% | ED50 [3]: 0.0057 µmol/kg; inhibition in vivo at 0.3 µmol/kg [4]: 80%
Cc1cccc(NC(=O)N[C@H]2N=C(c3ccccc3)c3ccccc3N(CC(=O)C3CCCC3)C2=O)c1 | 6.1 nM |  | 
Cc1cccc(NC(=O)NC2N=C(c3ccccc3)c3ccccc3N(CC(=O)C3CCCC3)C2=O)c1 (configuration not stated) | 0.23 nM | 65.2% | inhibition in vivo at 0.3 µmol/kg [5]: 36%; ED50 [6]: 0.0155 µmol/kg
Cc1cccc(NC(=O)NC2N=C(c3ccccc3)c3ccccc3N(CC(=O)C(C)C)C2=O)c1 (configuration not stated) | 2.1 nM |  | 
Cc1cccc(NC(=O)NC2N=C(c3ccccc3)c3ccccc3N(CC(=O)C(C)(C)C3CCCCC3)C2=O)c1 (configuration not stated) | 0.86 nM |  | 
CCC(C)(C)C(=O)CN1C(=O)C(NC(=O)Nc2cccc(C)c2)N=C(c2ccccc2)c2ccccc21 (configuration not stated) | 0.57 nM |  | 
Cc1cccc(NC(=O)N[C@@H]2N=C(c3ccccc3)c3ccccc3N(C)C2=O)c1 [L-365260] |  | 0% | ED50 [3]: 4.23 µmol/kg; inhibition [7]: inactive
Cc1cccc(NC(=O)NC2N=C(c3ccccc3)c3ccccc3N(CC(=O)C3CCCCCC3)C2=O)c1 (configuration not stated) | 2 nM | 53.5% | 
Cc1cccc(NC(=O)NC2N=C(c3ccccc3)c3ccccc3N(CC(=O)C3CCC3)C2=O)c1 (configuration not stated) | 2.37 nM |  | 
CCC(CC)C(=O)CN1C(=O)C(NC(=O)Nc2cccc(C)c2)N=C(c2ccccc2)c2ccccc21 (configuration not stated) | 1.9 nM |  | 
Cc1cccc(NC(=O)NC2N=C(c3ccccc3)c3ccccc3N(CC(=O)C3(C)CC3)C2=O)c1 (configuration not stated) | 0.41 nM |  | 
Cc1cccc(NC(=O)N[C@@H]2N=C(c3ccccc3)c3ccccc3N(CC(=O)c3ccccc3C)C2=O)c1 | 0.11 nM | 80% | ED50 [3]: 0.0078 µmol/kg; inhibition in vivo at 0.3 µmol/kg [4]: 16%; IC50 [8]: 146 nM
Cc1cccc(NC(=O)N[C@@H]2N=C(c3ccccc3)c3ccccc3N(CC(=O)C3CCCC3)C2=O)c1 |  | 79.9% | inhibition in vivo at 0.3 µmol/kg [4]: 31%
Cc1cccc(NC(=O)NC2N=C(c3ccccc3)c3ccccc3N(CC(=O)C3(C)CCCCC3)C2=O)c1 (configuration not stated) | 0.38 nM |  | 
Cc1cccc(NC(=O)NC2N=C(c3ccccc3)c3ccccc3N(CC(=O)C3CCCCC3)C2=O)c1 (configuration not stated) | 0.4 nM |  | inhibition in vivo at 0.1 µmol/kg [9]: 67%
Cc1cccc(NC(=O)NC2N=C(c3ccccc3)c3ccccc3N(CC(=O)C3(C)CCCC3)C2=O)c1 (configuration not stated) | 0.1 nM |  | 
